Source: patent US20250018014A1, “METHOD FOR TREATING AND/OR PREVENTING REGNASE-1-RELATED DISEASE” (OSAKA UNIVERSITY, priority 2018, published 2025)
Where two headings read alike, the source gives them in different places. Residues, ends and D or L forms follow the SMILES beside them.

Columns and labels:
[1] = target: T1, FL_Reg1 (full-length human Regnase-1) phosphorylation by IKKβ (Homo sapiens, UniProt Q5D1E8); experiment: Regnase-1 phosphorylation inhibition by compounds (AlphaScreen), IKKβ, full-length Regnase-1; assay type: biochemical
T1 construct: made in house; host or cells: Expi293 cells
T1 sequence (Q5D1E8 1-599): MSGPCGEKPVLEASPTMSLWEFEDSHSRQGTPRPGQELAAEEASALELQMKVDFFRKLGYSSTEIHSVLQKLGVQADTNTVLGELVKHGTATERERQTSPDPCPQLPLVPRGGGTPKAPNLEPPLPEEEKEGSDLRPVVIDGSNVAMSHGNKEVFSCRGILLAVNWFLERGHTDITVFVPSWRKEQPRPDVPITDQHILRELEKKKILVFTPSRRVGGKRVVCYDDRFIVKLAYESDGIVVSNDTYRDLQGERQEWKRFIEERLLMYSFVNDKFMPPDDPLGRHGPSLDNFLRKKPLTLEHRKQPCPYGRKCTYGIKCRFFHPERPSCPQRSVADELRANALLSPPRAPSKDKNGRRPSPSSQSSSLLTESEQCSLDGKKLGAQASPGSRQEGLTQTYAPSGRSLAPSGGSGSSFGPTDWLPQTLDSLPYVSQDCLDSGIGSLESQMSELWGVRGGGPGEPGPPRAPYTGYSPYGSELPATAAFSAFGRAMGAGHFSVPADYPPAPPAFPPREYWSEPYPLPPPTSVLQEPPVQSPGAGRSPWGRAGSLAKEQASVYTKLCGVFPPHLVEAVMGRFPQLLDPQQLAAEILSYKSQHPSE
From the text: (§1) The full-length sequence of human Regnase-1 (UniProt ID: Q5D1E8) was used to prepare a construct having a FLAG tag on the N-terminal side and a recognition sequence for biotin ligase BirA on the C-terminal side (FL_Reg1) as a target protein. The above-mentioned Regnase-1 was expressed in mammalian Expi293 cells, purified with FLAG M2 agarose, and isolated by gel filtration chromatography. When biotinylation was required, methods from nonpatent documents (BMC biotechnology, 2008,8,41; and Protein Science, 1999,8,921-929) were used. […]
(§2) Using Kinase assay buffer III (manufactured by SignalChem) supplemented with 2 mM DTT, 100 μM sodium vanadate, and 2 mM manganese chloride, kinase (IKKβ (manufactured by SignalChem) or TBK1 (manufactured by SignalChem)) and Regnase-1 were reacted in the presence of 10 μM ATP at room temperature for 2 hours to perform a phosphorylation reaction.
(§3) Phosphorylated Regnase-1 was detected by the AlphaScreen system. After each of the above-mentioned phosphorylated Regnase-1 antibodies was added and reacted at room temperature for one hour, anti-FLAG AlphaLISA Acceptor Beads (manufactured by PerkinElmer) and Protein A AlphaScreen Donor Beads (manufactured by PerkinElmer) were added, and EnVision (manufactured by PerkinElmer) was used to measure the excited luminescence. As a result, phosphorylated Regnase-1 produced by the phosphorylation reaction by kinase was specifically detected, and signals were confirmed to be enhanced in a manner dependent on Regnase-1 and kinase concentrations (FIG. 24).
(§4) After mixing 2 nM of the above-mentioned Regnase-1 and the compound, phosphorylated Regnase-1 produced by the phosphorylation reaction was detected by the AlphaScreen system. As the results, the inhibition rate was calculated from the signals obtained when adding the compound at each concentration, by defining the signal obtained with Regnase-1 alone to be 100% inhibition rate, and the signal obtained when the same amount of solvent (DMSO) is added in place of the compound as 0% inhibition rate. The 50% inhibition concentration (μM) was calculated from the obtained dose response curve (Table 11).

[2] = target: T2, FL_Reg1 (full-length human Regnase-1) phosphorylation by TBK1 (Homo sapiens, UniProt Q5D1E8); experiment: Regnase-1 phosphorylation inhibition by compounds (AlphaScreen), TBK1, full-length Regnase-1; assay type: biochemical
T2 construct: made in house; host or cells: Expi293 cells
T2 sequence (Q5D1E8 1-599): T1 sequence (Q5D1E8 1-599)
From the text: as §1, §2, §3, §4

[3] = target: T3, binding between TBK1 and full-length Regnase-1 (FL_Reg1) (Homo sapiens, UniProt Q5D1E8); experiment: Inhibition of kinase-Regnase-1 binding by the compounds (AlphaScreen), TBK1
T3 construct: made in house; host or cells: Expi293 cells
T3 sequence (Q5D1E8 1-599): T1 sequence (Q5D1E8 1-599)
Description: (§5) As a target protein, a construct having a FLAG tag on the N-terminal side and a recognition sequence for biotin ligase BirA on the C-terminal side of the full-length sequence of human Regnase-1 (UniProt ID: Q5D1E8) was prepared (FL_Reg1). The above-mentioned Regnase-1 was expressed in mammalian Expi293 cells, purified with FLAG M2 agarose, and isolated by gel filtration chromatography. When biotinylation was required, methods from nonpatent documents (BMC biotechnology, 2008,8,41; and Protein Science, 1999,8,921-929) were used.
(§6) After mixing 2.5 nM of the above-mentioned Regnase-1 and the compound, 2.5 nM of IKKβ or TBK1 was added and reacted at room temperature for two hours. Then, Anti FLAG AlphaLISA Acceptor Beads (manufactured by PerkinElmer) and Glutathione-coated AlphaScreen Donor Beads (manufactured by PerkinElmer) were added, and excited luminescence was measured using En Vision (manufactured by PerkinElmer). As the results, the inhibition rate from the signals obtained when adding the compound at each concentration were calculated, by defining the signal obtained with Regnase-1 alone to be 100% inhibition rate, and the signal obtained when the same amount of solvent (DMSO) is added in place of the compound as 0% inhibition rate. The 50% inhibition concentration (μM) was calculated from the obtained dose response curve (Table 12).

[4] = target: T4, binding between IKKβ and full-length Regnase-1 (FL_Reg1) (Homo sapiens, UniProt Q5D1E8); experiment: Inhibition of kinase-Regnase-1 binding by the compounds (AlphaScreen), IKKβ
T4 construct: made in house; host or cells: Expi293 cells
T4 sequence (Q5D1E8 1-599): T1 sequence (Q5D1E8 1-599)
Description: as §5, §6

[5] = Table 11, 2 nM Regnase-1, AlphaScreen, read-out: 50% inhibition concentration, Regnase-1 phosphorylation, FL_Reg1, IKKβ
[6] = Table 11, 2 nM Regnase-1, AlphaScreen, read-out: 50% inhibition concentration, Regnase-1 phosphorylation, FL_Reg1, TBK1
[7] = Table 12, 2.5 nM Regnase-1, 2.5 nM TBK1, AlphaScreen, read-out: 50% inhibition concentration, binding between Regnase-1 and TBK1, FL_Reg1
[8] = Table 12, 2.5 nM Regnase-1, 2.5 nM IKKβ, AlphaScreen, read-out: 50% inhibition concentration, binding between Regnase-1 and IKKβ, FL_Reg1
[9] = Table 14, phosphorylation by IKKβ, read-out: Phosphorylation inhibition FL_Reg1, 50% inhibition concentration (IKKβ)
[10] = Table 13, phosphorylation by TBK1, read-out: Phosphorylation inhibition FL_Reg1, 50% inhibition concentration (TBK1)
[11] = Table 13, binding between TBK1 and Regnase-1, read-out: Binding inhibition FL_Reg1, 50% inhibition concentration (TBK1)
[12] = Table 14, binding between IKKβ and Regnase-1, read-out: Binding inhibition FL_Reg1, 50% inhibition concentration (IKKβ)

Compound	IC50 [1, 5] [µM]	IC50 [2, 6] [µM]	IC50 [3, 7] [µM]	IC50 [4, 8] [µM]	IC50 [1, 9] [µM]	IC50 [2, 10] [µM]	IC50 [3, 11] [µM]	IC50 [4, 12] [µM]
CC[C@H](C)[C@@H]1NC(=O)[C@H](CO)NC(=O)[C@H](CCCNC(=N)N)NC(=O)[C@H](Cc2ccc(O)cc2)NC(=O)[C@H](Cc2ccc(O)cc2)NC(=O)[C@H](Cc2c[nH]c3ccccc23)NC(=O)[C@H](CO)NC(=O)[C@H](CCC(N)=O)NC(=O)[C@H](Cc2ccc(O)cc2)NC(=O)[C@H](CC(N)=O)NC(=O)[C@H](C)N(C)C(=O)C[C@@H](C(=O)N2CCCC2)NC(=O)[C@H](Cc2c[nH]c3ccccc23)NC1=O [PP10] (HELM PEPTIDE1{[meA].N.Y.Q.S.W.Y.Y.R.S.I.W.D.[C1CCN([*:1])C1]}$PEPTIDE1,PEPTIDE1,1:R1-13:R3$$$V2.0)	–	–	–	–	0.5	0.2	9.8	11.4
CC[C@H](C)[C@@H]1NC(=O)[C@H](CC(N)=O)NC(=O)[C@H](Cc2ccc(O)cc2)NC(=O)[C@H](Cc2c[nH]c3ccccc23)NC(=O)[C@H](CO)NC(=O)[C@H](CC(N)=O)NC(=O)[C@H](C)NC(=O)[C@H](Cc2ccc(O)cc2)NC(=O)CNC(=O)[C@H](C)N(C)C(=O)C[C@@H](C(=O)N2CCCC2)NC(=O)[C@H](Cc2c[nH]c3ccccc23)NC1=O [PP2] (HELM PEPTIDE1{[meA].G.Y.A.N.S.W.Y.N.I.W.D.[C1CCN([*:1])C1]}$PEPTIDE1,PEPTIDE1,1:R1-12:R3$$$V2.0)	16.6	21.7	15.5	35.8	–	–	–	–
CC[C@H](C)[C@@H]1NC(=O)[C@H](CCCCN)NC(=O)[C@H](Cc2ccc(O)cc2)NC(=O)[C@H](Cc2c[nH]c3ccccc23)NC(=O)[C@H](CO)NC(=O)[C@H](CO)NC(=O)[C@H]([C@@H](C)O)NC(=O)[C@@H]2CCCN2C(=O)[C@@H](C)N(C)C(=O)C[C@@H](C(=O)N2CCCC2)NC(=O)[C@H](Cc2c[nH]c3ccccc23)NC1=O [PP23] (HELM PEPTIDE1{[C[C@H](C(=O)[*:2])N(C)[*:1]].P.T.S.S.W.Y.K.I.W.D.[C1CCN([*:1])C1]}$PEPTIDE1,PEPTIDE1,1:R1-11:R3$$$V2.0)	–	–	–	–	25.6	18.8	9.2	41.3
CC[C@H](C)[C@@H]1NC(=O)[C@H](CC(=O)O)NC(=O)[C@H](C)N(C)C(=O)C[C@@H](C(=O)N2CCCC2)NC(=O)[C@H](Cc2c[nH]c3ccccc23)NC(=O)[C@H](CC(=O)O)NC(=O)[C@H](Cc2c[nH]c3ccccc23)NC(=O)[C@H](Cc2ccc(O)cc2)NC(=O)[C@H](CC(=O)O)NC(=O)[C@H](Cc2ccccc2)NC(=O)[C@H](Cc2c[nH]c3ccccc23)NC1=O [PP17] (HELM PEPTIDE1{[meA].D.I.W.F.D.Y.W.D.W.D.[C1CCN([*:1])C1]}$PEPTIDE1,PEPTIDE1,1:R1-11:R3$$$V2.0)	–	–	–	–	0.5	< 0.06	< 0.06	< 0.06

The next lines start with the values.

IC50 [1, 5] [µM]	IC50 [2, 6] [µM]	IC50 [3, 7] [µM]	IC50 [4, 8] [µM]	IC50 [1, 9] [µM]	IC50 [2, 10] [µM]	IC50 [3, 11] [µM]	IC50 [4, 12] [µM]	Compound
17	13.1	19.2	42.1	–	–	–	–	CC[C@H](C)[C@@H]1NC(=O)[C@H](CCCCN)NC(=O)[C@H](Cc2ccccc2)NC(=O)[C@H](Cc2c[nH]c3ccccc23)NC(=O)[C@H](CO)NC(=O)[C@H](CO)NC(=O)[C@H](CC(N)=O)NC(=O)[C@@H]2CCCN2C(=O)[C@@H](C)N(C)C(=O)C[C@@H](C(=O)N2CCCC2)NC(=O)[C@H](Cc2c[nH]c3ccccc23)NC1=O [PP6] (HELM PEPTIDE1{[C[C@H](C(=O)[*:2])N(C)[*:1]].P.N.S.S.W.F.K.I.W.D.[C1CCN([*:1])C1]}$PEPTIDE1,PEPTIDE1,1:R1-11:R3$$$V2.0)
4.6	3.9	3.1	8.3	–	–	–	–	CC[C@H](C)[C@@H]1NC(=O)[C@H](CCCNC(=N)N)NC(=O)[C@H](Cc2ccc(O)cc2)NC(=O)[C@H](Cc2c[nH]c3ccccc23)NC(=O)[C@H](C)NC(=O)[C@H](CO)NC(=O)[C@H](C)NC(=O)[C@H](Cc2c[nH]cn2)NC(=O)[C@H](CCCCN)NC(=O)[C@@H](C)N(C)C(=O)C[C@@H](C(=O)N2CCCC2)NC(=O)[C@H](Cc2c[nH]c3ccccc23)NC1=O [PP3] (HELM PEPTIDE1{[C[C@H](C(=O)[*:2])N(C)[*:1]].K.H.A.S.A.W.Y.R.I.W.D.[C1CCN([*:1])C1]}$PEPTIDE1,PEPTIDE1,1:R1-12:R3$$$V2.0)
–	–	–	–	15	24.3	11.4	26.8	CC[C@H](C)[C@@H]1NC(=O)[C@H](CCCNC(=N)N)NC(=O)[C@H](Cc2ccc(O)cc2)NC(=O)[C@H](Cc2c[nH]c3ccccc23)NC(=O)[C@H](CO)NC(=O)[C@H](CC(N)=O)NC(=O)[C@H](C)N(C)C(=O)C[C@@H](C(=O)N2CCCC2)NC(=O)[C@H](CC(C)C)NC(=O)CNC(=O)[C@H](Cc2c[nH]c3ccccc23)NC1=O [PP22] (HELM PEPTIDE1{[meA].N.S.W.Y.R.I.W.G.L.D.[C1CCN([*:1])C1]}$PEPTIDE1,PEPTIDE1,1:R1-11:R3$$$V2.0)
–	–	–	–	19.6	13.5	5.6	20.7	CC[C@H](C)[C@@H]1NC(=O)[C@H](CCCCN)NC(=O)[C@H](Cc2ccc(O)cc2)NC(=O)[C@H](Cc2c[nH]c3ccccc23)NC(=O)[C@H](CO)NC(=O)[C@H](CC(N)=O)NC(=O)[C@H](C)N(C)C(=O)C[C@@H](C(=O)N2CCCC2)NC(=O)[C@H](CC(C)C)NC(=O)CNC(=O)[C@H](Cc2c[nH]c3ccccc23)NC1=O [PP21] (HELM PEPTIDE1{[meA].N.S.W.Y.K.I.W.G.L.D.[C1CCN([*:1])C1]}$PEPTIDE1,PEPTIDE1,1:R1-11:R3$$$V2.0)
23.6	24.2	11.5	24	–	–	–	–	CC[C@H](C)[C@@H]1NC(=O)[C@H](CC(N)=O)NC(=O)[C@H](Cc2ccc(O)cc2)NC(=O)[C@H](Cc2c[nH]c3ccccc23)NC(=O)[C@H](C)NC(=O)[C@H](CC(N)=O)NC(=O)[C@H](CO)NC(=O)[C@H](Cc2c[nH]cn2)NC(=O)[C@H](C)N(C)C(=O)C[C@@H](C(=O)N2CCCC2)NC(=O)[C@H](Cc2c[nH]c3ccccc23)NC1=O [PP5] (HELM PEPTIDE1{[meA].H.S.N.A.W.Y.N.I.W.D.[C1CCN([*:1])C1]}$PEPTIDE1,PEPTIDE1,1:R1-11:R3$$$V2.0)
